# In patent US8415336B2, “Cyclic (aza)indolizinecarboxamides, their preparation and their use as pharmaceuticals” (Sanofi, priority 2009, dated 2013):
# Structures can show the parent of a compound that is named as a salt.
# Test system: not given
# Assay: not given
# Conditions: not given
row,melting point [°C],SMILES
1,180 to 181,Cc1c(F)cccc1Cc1c(-c2ccccc2)c2ccccn2c1C(=O)N1CCN[C@@H](CO)C1 (as salt: hydrochloride) [Example 22]
2,127 to 129,CNC(=O)CC[C@H]1CN(C(=O)c2c(Cc3cccc(F)c3C)c(-c3ccccc3)c3ccccn23)CCN1 (as salt: hydrochloride) [Example 26]
3,112 to 113,COC(=O)CCNC(=O)C[C@H]1CN(C(=O)c2c(Cc3cccc(F)c3C)c(-c3ccccc3)c3ccccn23)CCN1 (as salt: hydrochloride) [Example 30]
4,166 to 168,Cc1c(F)cccc1Cc1c(-c2ccccc2)c2ccccn2c1C(=O)N1CCN[C@@H](CC(=O)NCCS(C)(=O)=O)C1 (as salt: hydrochloride) [Example 31]
5,181 to 182,Cc1c(F)cccc1Cc1c(-c2ccccc2)c2ccccn2c1C(=O)N1CCN[C@@H](CC(=O)NCc2cccnc2)C1 (as salt: hydrochloride) [Example 32]
6,124 to 125,"COc1ccn2c(C(=O)N3CCNCC3)c(Cc3cccc(F)c3C)c(-c3ccccc3)c2c1 (as salt: hydrochloride) [Example 35, [2-(3-fluoro-2-methyl-benzyl)-7-methoxy-1-phenyl-indolizin-3-yl]-piperazin-1-yl-methanone]"
7,164 to 166,Cc1c(F)cccc1Cc1c(-c2ccccc2)c2cc(C(=O)N3CCCCC3)cnn2c1C(=O)N1CCN[C@@H](CC(=O)NCCO)C1 (as salt: hydrochloride) [Example 39]
8,151 to 153,"CCNC(=O)c1cnn2c(C(=O)N3CCN[C@@H](CC(=O)NCCOC)C3)c(Cc3cccc(F)c3C)c(-c3ccccc3)c2c1 (as salt: hydrochloride) [Example 42, 6-(3-fluoro-2-methyl-benzyl)-7-{(S)-3-[(2-methoxy-ethylcarbamoyl)-methyl]-piperazine-1-carbonyl}-5-phenyl-pyrrolo[1,2-b]pyridazine-3-carboxylic acid ethylamide]"
9,130 to 132,COCCN(C)C(=O)C[C@H]1CN(C(=O)c2c(Cc3cccc(F)c3C)c(-c3ccccc3)c3cc(C(=O)N(C)C)cnn23)CCN1 (as salt: hydrochloride) [Example 46]

# Molecular target: T1, Recombinant human renin (Homo sapiens, UniProt P00797)
# T1 construct: purchased Cayman 10006217
# T1 sequence (P00797 67-406): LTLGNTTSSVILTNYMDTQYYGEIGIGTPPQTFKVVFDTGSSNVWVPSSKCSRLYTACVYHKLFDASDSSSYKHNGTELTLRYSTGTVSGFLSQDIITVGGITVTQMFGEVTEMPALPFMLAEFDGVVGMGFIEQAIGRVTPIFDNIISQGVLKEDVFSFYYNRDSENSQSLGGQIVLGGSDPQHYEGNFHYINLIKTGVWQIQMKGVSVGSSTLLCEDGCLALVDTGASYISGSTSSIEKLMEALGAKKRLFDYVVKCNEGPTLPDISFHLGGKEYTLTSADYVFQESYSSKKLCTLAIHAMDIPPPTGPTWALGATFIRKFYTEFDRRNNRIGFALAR
# Assay: Inhibition of renin (fluorogenic peptide substrate)
# Type: biochemical
# Conditions: recombinant human renin 5 nM, fluorogenic peptide substrate 10 μM, 2 h at room temperature, Tris buffer pH 8; compounds tested as the obtained salt
# Procedure: Recombinant human renin (Cayman, no. 10006217) at a concentration of 5 nM was incubated with the test compounds at various concentrations and the synthetic substrate Dabcyl-γ-Abu-Ile-His-Pro-Phe-His-Leu-Val-Ile-His-Thr-EDANS (Bachem, no. M-2050; Dabcyl means the 4-(4-dimethylamino-phenylazo)-benzoyl group and EDANS means the amide with 5-[(2-aminoethyl)amino]-naphthalene-1-sulfonic acid) at a concentration of 10 μM for 2 h at room temperature in 0.05 M Tris buffer (pH 8) containing 0.1 M NaCl, 2.5 mM EDTA and 1.25 mg/ml bovine serum albumin. The increase in fluorescence, which is due to fluorescence resonance energy transfer, was recorded at an excitation wavelength of 330 nm and an emission wavelength of 485 nm in a microplate spectrofluorometer. Inhibitory concentrations IC50 were calculated from the percentage of inhibition of renin activity as a function of the concentration of the test compound. […] Representative IC50 values, which were determined with the compounds in the form of the obtained salt indicated in the examples above, are listed in Table 4.
row,IC50 [nM],SMILES
1,7.1,"Cc1c(F)cccc1Cc1c(-c2ccccc2)c2ccccn2c1C(=O)N1CCNCC1 [Example 1, [2-(3-Fluoro-2-methyl-benzyl)-1-phenyl-indolizin-3-yl]-piperazin-1-yl-methanone]"
2,38,"Cc1c(F)cccc1Cc1c(C2CCCCC2)c2ccccn2c1C(=O)N1CCNCC1 [Example 2, [1-Cyclohexyl-2-(3-fluoro-2-methyl-benzyl)-indolizin-3-yl]-piperazin-1-yl-methanone]"
3,2.6,"Cc1c(F)cccc1Cc1c(-c2ccccc2)c2ccccn2c1C(=O)N1CCN[C@@H](CC(=O)NCC2CCOCC2)C1 [Example 6, 2-{(S)-4-[2-(3-Fluoro-2-methyl-benzyl)-1-phenyl-indolizine-3-carbonyl]-piperazin-2-yl}-N-(tetrahydropyran-4-ylmethyl)-acetamide]"
4,2.6,"Cc1c(F)cccc1Cc1c(-c2ccccc2)c2ccccn2c1C(=O)N1CCN[C@@H](CC(=O)NCC(C)(C)C(N)=O)C1 [Example 7, 3-(2-{(S)-4-[2-(3-Fluoro-2-methyl-benzyl)-1-phenyl-indolizine-3-carbonyl]-piperazin-2-yl}-acetylamino)-2,2-dimethyl-propionamide]"
5,4.3,"Cc1c(F)cccc1Cc1c(-c2ccccc2)c2cccnn2c1C(=O)N1CCNCC1 [Example 9, [6-(3-Fluoro-2-methyl-benzyl)-5-phenyl-pyrrolo[1,2-b]pyridazin-7-yl]-piperazin-1-yl-methanone]"
6,8.2,"Cc1c(F)cccc1Cc1c(-c2ccccc2)c2cc(O)cnn2c1C(=O)N1CCNCC1 [Example 10, [6-(3-Fluoro-2-methyl-benzyl)-3-hydroxy-5-phenyl-pyrrolo[1,2-b]pyridazin-7-yl]-piperazin-1-yl-methanone]"
7,23,"Cc1c(F)cccc1Cc1c(C(=O)N2CCNCC2)c2ccccn2c1-c1ccccc1 [Example 11, [2-(3-Fluoro-2-methyl-benzyl)-3-phenyl-indolizin-1-yl]-piperazin-1-yl-methanone]"
8,360,"Cc1c(F)cccc1Cc1c(C(=O)N2CCNCC2)c2cc(Br)ccn2c1-c1ccccc1 [Example 12, [7-Bromo-2-(3-fluoro-2-methyl-benzyl)-3-phenyl-indolizin-1-yl]-piperazin-1-yl-methanone]"
9,64,"CNC(=O)c1ccc2c(-c3ccccc3)c(Cc3cccc(F)c3C)c(C(=O)N3CCNCC3)n2c1 [Example 13, 2-(3-Fluoro-2-methyl-benzyl)-1-phenyl-3-(piperazine-1-carbonyl)-indolizine-6-carboxylic acid methylamide]"
10,76,"Cc1c(F)cccc1Cc1c(C(=O)N2CCN[C@@H](C)C2)c2ccccn2c1-c1ccccc1 [Example 15, [2-(3-Fluoro-2-methyl-benzyl)-3-phenyl-indolizin-1-yl)-((S)-3-methyl-piperazin-1-yl)-methanone]"
11,870,"Cc1cccc(C)c1Cc1c(-c2ccccc2)c2ccccn2c1C(=O)N1CCN[C@H](C)C1 [Example 17, [2-(2,6-Dimethyl-benzyl)-1-phenyl-indolizin-3-yl)-((R)-3-methyl-piperazin-1-yl)-methanone]"
12,3.4,"Cc1c(F)cccc1Cc1c(-c2cccc(F)c2)c2ccccn2c1C(=O)N1CCNCC1 [Example 20, [2-(3-fluoro-2-methyl-benzyl)-1-(3-fluoro-phenyl)-indolizin-3-yl]-piperazin-1-yl-methanone]"
13,100,Cc1c(F)cccc1Cc1c(-c2ccccc2)c2ccccn2c1C(=O)N1CCN[C@@H](CO)C1 [Example 22]
14,230,CNC(=O)CC[C@H]1CN(C(=O)c2c(Cc3cccc(F)c3C)c(-c3ccccc3)c3ccccn23)CCN1 [Example 26]
15,31,COC(=O)CCNC(=O)C[C@H]1CN(C(=O)c2c(Cc3cccc(F)c3C)c(-c3ccccc3)c3ccccn23)CCN1 [Example 30]
16,21,Cc1c(F)cccc1Cc1c(-c2ccccc2)c2ccccn2c1C(=O)N1CCN[C@@H](CC(=O)NCCS(C)(=O)=O)C1 [Example 31]
17,38,Cc1c(F)cccc1Cc1c(-c2ccccc2)c2ccccn2c1C(=O)N1CCN[C@@H](CC(=O)NCc2cccnc2)C1 [Example 32]
18,28,"COc1ccn2c(C(=O)N3CCNCC3)c(Cc3cccc(F)c3C)c(-c3ccccc3)c2c1 [Example 35, [2-(3-fluoro-2-methyl-benzyl)-7-methoxy-1-phenyl-indolizin-3-yl]-piperazin-1-yl-methanone]"
19,7.4,Cc1c(F)cccc1Cc1c(-c2ccccc2)c2cc(C(=O)N3CCCCC3)cnn2c1C(=O)N1CCN[C@@H](CC(=O)NCCO)C1 [Example 39]
20,10,COCCN(C)C(=O)C[C@H]1CN(C(=O)c2c(Cc3cccc(F)c3C)c(-c3ccccc3)c3cc(C(=O)N(C)C)cnn23)CCN1 [Example 46]
